# Test results taken from patent US10899788B2, “Cyclic phosphate substituted nucleoside compounds and methods of use thereof for the treatment of viral diseases” (MERCK SHARP & DOHME CORP., priority 2016, dated 2021).
# Assays:
# [1] = tested on: HCV replicon cells (1b-Con1); experiment: Replicon activity assay (cell-based anti-HCV activity); details: Hepatitis C virus, 72 h, three days post-dosing, replicon RNA level by real-time RT-PCR, read-out: EC50 (1b) Range
# Description: (§1) To measure cell-based anti-HCV activity of the compounds of the present invention, replicon cells (1b-Con1) are seeded at 5000 cells/well in 96-well plates one day prior to treatment with a compound of the invention. Various concentrations of a test compound of the invention in DMSO are then added to the replicon cells, with the final concentration of DMSO at 0.5% and fetal bovine serum at 10% in the assay media. Cells are harvested three days post-dosing, and the replicon RNA level is determined using real-time RT-PCR (Taqman assay) with GAPDH RNA as endogenous control. EC50 values are calculated from experiments with 10 serial twofold dilutions of the inhibitor in triplicate. To measure cytotoxicity in replicon cells of an inhibitor, an MTS assay is performed according to the manufacturer's protocol for CellTiter 96 Aqueous One Solution Cell Proliferation Assay (Promega, Cat #G3580) three days post dosing on cells treated identically as in replicon activity assays. […] Cytotoxicity in other types of cells may be measured using the same MTS protocol.
# (§2) Data were obtained using this method for selected compounds of the present invention, and are set forth below in Table 2.
# [2] = Cytotoxicity assay in replicon cells (MTS); type: cell-based; details: HCV replicon cells (1b-Con1), three days post dosing, head prints EDU, method MTS, read-out: CC50 (EDU) Range
# Description: as §1, §2
compound,measurement,setting,value
C#C[C@]1(C)[C@@H]2OP(=O)(OCCCC(=O)OC3CCCC3)OC[C@H]2O[C@H]1n1ccc(=O)[nH]c1=O (some centres unmarked) [7A or 7B],EC50,[1],≤ 0.25 µM
CCOC(=O)CCCCOP1(=O)OC[C@H]2O[C@@H](n3ccc(=O)[nH]c3=O)[C@](C)(N)[C@@H]2O1 (some centres unmarked) [21A or 21B],EC50,[1],> 10 µM
same,CC50 at 3 days,[2],> 50 µM
CC(C)OC(=O)CCCOP1(=O)OC[C@H]2O[C@@H](n3ccc(=O)[nH]c3=O)[C@](C)(C#N)[C@@H]2O1 (some centres unmarked) [Compound 1A],EC50,[1],1 to 10 µM
same,CC50 at 3 days,[2],> 50 µM
CC(C)OC(=O)CCCO[P@]1(=O)OC[C@H]2O[C@@H](n3ccc(=O)[nH]c3=O)[C@](C)(C#N)[C@@H]2O1 [Compound 1B],EC50,[1],0.25 to 1 µM
same,CC50 at 3 days,[2],> 50 µM
CCOc1nc(N)nc2c1ncn2[C@@H]1O[C@@H]2CO[P@](=O)(OCCCC(=O)OC(C)C)O[C@H]2[C@@]1(C)N [Compound 3A],EC50,[1],> 10 µM
same,CC50 at 3 days,[2],> 50 µM
CCOc1nc(N)nc2c1ncn2[C@@H]1O[C@@H]2CO[P@@](=O)(OCCCC(=O)OC(C)C)O[C@H]2[C@@]1(C)N [Compound 3B],EC50,[1],1 to 10 µM
same,CC50 at 3 days,[2],> 50 µM
CCCCOC(=O)CCCO[P@@]1(=O)OC[C@H]2O[C@@H](n3ccc(=O)[nH]c3=O)[C@](C)(N)[C@@H]2O1 [Compound 4A],EC50,[1],> 10 µM
same,CC50 at 3 days,[2],> 50 µM
CCCCOC(=O)CCCO[P@]1(=O)OC[C@H]2O[C@@H](n3ccc(=O)[nH]c3=O)[C@](C)(N)[C@@H]2O1 [Compound 4B],EC50,[1],1 to 10 µM
same,CC50 at 3 days,[2],> 50 µM
C[C@@]1(N)[C@@H]2O[P@@](=O)(OCCCC(=O)OC3CCCC3)OC[C@H]2O[C@H]1n1ccc(=O)[nH]c1=O [Compound 5A],EC50,[1],> 10 µM
same,CC50 at 3 days,[2],> 50 µM
C[C@@]1(N)[C@@H]2O[P@](=O)(OCCCC(=O)OC3CCCC3)OC[C@H]2O[C@H]1n1ccc(=O)[nH]c1=O [Compound 5B],EC50,[1],> 10 µM
same,CC50 at 3 days,[2],> 50 µM
C[C@@]1(Cl)[C@@H]2O[P@@](=O)(OCCCC(=O)OC3CCCC3)OC[C@H]2O[C@H]1n1ccc(N)nc1=O [Compound 6A],EC50,[1],> 10 µM
same,CC50 at 3 days,[2],> 50 µM
C[C@@]1(Cl)[C@@H]2O[P@](=O)(OCCCC(=O)OC3CCCC3)OC[C@H]2O[C@H]1n1ccc(N)nc1=O [Compound 6B],EC50,[1],≤ 0.25 µM
same,CC50 at 3 days,[2],> 50 µM
CC(C)OC(=O)CCCO[P@@]1(=O)OC[C@H]2O[C@@H](n3ccc(N)nc3=O)[C@](C)(Cl)[C@@H]2O1 [Compound 8A],EC50,[1],1 to 10 µM
same,CC50 at 3 days,[2],> 50 µM
CC(C)OC(=O)CCCO[P@]1(=O)OC[C@H]2O[C@@H](n3ccc(N)nc3=O)[C@](C)(Cl)[C@@H]2O1 [Compound 8B],EC50,[1],0.25 to 1 µM
same,CC50 at 3 days,[2],> 50 µM
CCOc1nc(N)nc2c1ncn2[C@@H]1O[C@@H]2CO[P@](=O)(OCCCC(=O)OC(C)C)O[C@H]2[C@@]1(C)Cl [Compound 9A],EC50,[1],> 10 µM
same,CC50 at 3 days,[2],> 50 µM
CCOc1nc(N)nc2c1ncn2[C@@H]1O[C@@H]2CO[P@@](=O)(OCCCC(=O)OC(C)C)O[C@H]2[C@@]1(C)Cl [Compound 9B],EC50,[1],≤ 0.25 µM
same,CC50 at 3 days,[2],> 50 µM
CC(C)OC(=O)CCCO[P@@]1(=O)OC[C@H]2O[C@@H](n3ccc(N)nc3=O)[C@](C)(N)[C@@H]2O1 [Compound 10A],EC50,[1],> 10 µM
same,CC50 at 3 days,[2],> 50 µM
CC(C)OC(=O)CCCO[P@]1(=O)OC[C@H]2O[C@@H](n3ccc(N)nc3=O)[C@](C)(N)[C@@H]2O1 [Compound 10B],EC50,[1],> 10 µM
same,CC50 at 3 days,[2],> 50 µM
C#C[C@]1(C)[C@@H]2O[P@@](=O)(OCCCC(=O)OC(C)C)OC[C@H]2O[C@H]1n1ccc(=O)[nH]c1=O [Compound 11A],EC50,[1],1 to 10 µM
same,CC50 at 3 days,[2],> 50 µM
C#C[C@]1(C)[C@@H]2O[P@](=O)(OCCCC(=O)OC(C)C)OC[C@H]2O[C@H]1n1ccc(=O)[nH]c1=O [Compound 11B],EC50,[1],0.25 to 1 µM
same,CC50 at 3 days,[2],> 50 µM
CC(C)OC(=O)CCCO[P@@]1(=O)OC[C@H]2O[C@@H](n3ccc(=O)[nH]c3=O)[C@](C)(N)[C@@H]2O1 [Compound 12A],EC50,[1],> 10 µM
same,CC50 at 3 days,[2],> 50 µM
CC(C)OC(=O)CCCO[P@]1(=O)OC[C@H]2O[C@@H](n3ccc(=O)[nH]c3=O)[C@](C)(N)[C@@H]2O1 [Compound 12B],EC50,[1],> 10 µM
same,CC50 at 3 days,[2],> 50 µM
C#C[C@@]1(O)[C@@H]2O[P@@](=O)(OCCCC(=O)OC(C)C)OC[C@H]2O[C@H]1n1ccc(=O)[nH]c1=O [Compound 13A],EC50,[1],> 10 µM
same,CC50 at 3 days,[2],> 50 µM
C#C[C@@]1(O)[C@@H]2O[P@](=O)(OCCCC(=O)OC(C)C)OC[C@H]2O[C@H]1n1ccc(=O)[nH]c1=O [Compound 13B],EC50,[1],1 to 10 µM
same,CC50 at 3 days,[2],> 50 µM
CC(C)OC(=O)CCCCO[P@@]1(=O)OC[C@H]2O[C@@H](n3ccc(=O)[nH]c3=O)[C@](C)(N)[C@@H]2O1 [Compound 14A],EC50,[1],> 10 µM
same,CC50 at 3 days,[2],> 50 µM
CC(C)OC(=O)CCCCO[P@]1(=O)OC[C@H]2O[C@@H](n3ccc(=O)[nH]c3=O)[C@](C)(N)[C@@H]2O1 [Compound 14B],EC50,[1],> 10 µM
same,CC50 at 3 days,[2],> 50 µM
C#C[C@]1(C)[C@@H]2O[P@@](=O)(OCCCCC(=O)OC(C)C)OC[C@H]2O[C@H]1n1ccc(=O)[nH]c1=O [Compound 15A],EC50,[1],> 10 µM
same,CC50 at 3 days,[2],> 50 µM
C#C[C@]1(C)[C@@H]2O[P@](=O)(OCCCCC(=O)OC(C)C)OC[C@H]2O[C@H]1n1ccc(=O)[nH]c1=O [Compound 15B],EC50,[1],> 10 µM
same,CC50 at 3 days,[2],> 50 µM
C#C[C@]1(C)[C@@H]2O[P@@](=O)(OCCCCC(=O)OC3CCCC3)OC[C@H]2O[C@H]1n1ccc(=O)[nH]c1=O [Compound 16A],EC50,[1],> 10 µM
same,CC50 at 3 days,[2],> 50 µM
C#C[C@]1(C)[C@@H]2O[P@](=O)(OCCCCC(=O)OC3CCCC3)OC[C@H]2O[C@H]1n1ccc(=O)[nH]c1=O [Compound 16B],EC50,[1],1 to 10 µM
same,CC50 at 3 days,[2],> 50 µM
C[C@@]1(N)[C@@H]2O[P@@](=O)(OCCCCC(=O)OC3CCCC3)OC[C@H]2O[C@H]1n1ccc(=O)[nH]c1=O [Compound 17A],EC50,[1],> 10 µM
same,CC50 at 3 days,[2],> 50 µM
C[C@@]1(N)[C@@H]2O[P@](=O)(OCCCCC(=O)OC3CCCC3)OC[C@H]2O[C@H]1n1ccc(=O)[nH]c1=O [Compound 17B],EC50,[1],1 to 10 µM
same,CC50 at 3 days,[2],> 50 µM
CC(C)OC(=O)CCCCO[P@@]1(=O)OC[C@H]2O[C@@H](n3ccc(=O)[nH]c3=O)[C@](C)(Cl)[C@@H]2O1 [Compound 18A],EC50,[1],1 to 10 µM
same,CC50 at 3 days,[2],> 50 µM
CC(C)OC(=O)CCCCO[P@]1(=O)OC[C@H]2O[C@@H](n3ccc(=O)[nH]c3=O)[C@](C)(Cl)[C@@H]2O1 [Compound 18B],EC50,[1],1 to 10 µM
same,CC50 at 3 days,[2],> 50 µM
C[C@@]1(Cl)[C@@H]2O[P@@](=O)(OCCCCC(=O)OC3CCCC3)OC[C@H]2O[C@H]1n1ccc(=O)[nH]c1=O [Compound 19A],EC50,[1],1 to 10 µM
same,CC50 at 3 days,[2],> 50 µM
C[C@@]1(Cl)[C@@H]2O[P@](=O)(OCCCCC(=O)OC3CCCC3)OC[C@H]2O[C@H]1n1ccc(=O)[nH]c1=O [Compound 19B],EC50,[1],0.25 to 1 µM
same,CC50 at 3 days,[2],> 50 µM
C#C[C@]1(C)[C@@H]2O[P@@](=O)(OCCCCC(=O)OCC)OC[C@H]2O[C@H]1n1ccc(=O)[nH]c1=O [Compound 20A],EC50,[1],> 10 µM
same,CC50 at 3 days,[2],> 50 µM
C#C[C@]1(C)[C@@H]2O[P@](=O)(OCCCCC(=O)OCC)OC[C@H]2O[C@H]1n1ccc(=O)[nH]c1=O [Compound 20B],EC50,[1],> 10 µM
same,CC50 at 3 days,[2],> 50 µM
C#C[C@]1(C)[C@@H]2O[P@@](=O)(OCCCCC(=O)OC)OC[C@H]2O[C@H]1n1ccc(=O)[nH]c1=O [Compound 22A],EC50,[1],> 10 µM
same,CC50 at 3 days,[2],> 50 µM
C#C[C@]1(C)[C@@H]2O[P@](=O)(OCCCCC(=O)OC)OC[C@H]2O[C@H]1n1ccc(=O)[nH]c1=O [Compound 22B],EC50,[1],> 10 µM
same,CC50 at 3 days,[2],> 50 µM
CC(C)OC(=O)CCCCCO[P@@]1(=O)OC[C@H]2O[C@@H](n3ccc(=O)[nH]c3=O)[C@](C)(N)[C@@H]2O1 [Compound 25A],EC50,[1],> 10 µM
CC(C)OC(=O)CCCCCO[P@]1(=O)OC[C@H]2O[C@@H](n3ccc(=O)[nH]c3=O)[C@](C)(N)[C@@H]2O1 [Compound 25B],EC50,[1],> 10 µM
CC(C)OC(=O)CCO[P@@]1(=O)OC[C@H]2O[C@@H](n3ccc(=O)[nH]c3=O)[C@](C)(Cl)[C@@H]2O1 [Compound 27A],EC50,[1],1 to 10 µM
CC(C)OC(=O)CCO[P@]1(=O)OC[C@H]2O[C@@H](n3ccc(=O)[nH]c3=O)[C@](C)(Cl)[C@@H]2O1 [Compound 27B],EC50,[1],1 to 10 µM
